In article PMC7023430, “4-Aminobenzoic Acid Derivatives: Converting Folate Precursor to Antimicrobial and Cytotoxic Agents” (Biomolecules, 2019):
≈ marks a conversion by molar mass, not a printed value. Like-named read-outs stand apart in the source and are kept apart here.

What was measured:
[1] = test system: Pseudomonas aeruginosa ATCC 27853, CCM 3955; experiment: Antibacterial microdilution broth method, P. aeruginosa; format: cell-based; details: Pseudomonas aeruginosa, P. aeruginosa
[2] = test system: methicillin-resistant Staphylococcus aureus ATCC 43300, CCM 4750 (MRSA); experiment: Antibacterial microdilution broth method, MRSA; format: cell-based; details: Staphylococcus aureus
[3] = test system: ESBL-positive Klebsiella pneumoniae J 14368/08
[4] = test system: M. kansasii 6509/96 (clinical isolate); experiment: Antimycobacterial micromethod in Šula's medium, M. kansasii 6509/96; format: cell-based; details: Mycobacterium kansasii
[5] = test system: Lichtheimia corymbifera 272; experiment: Antifungal microdilution broth method, L. corymbifera; format: cell-based
In short: (§1)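 Broth microdilution, EUCAST, modified. Medium: RPMI-1640 + L-glutamine + 2% glucose, MOPS pH 7.0; compounds from DMSO, twofold series. Visual MIC, duplicates, ≤1-step discrepancy accepted.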

[6] = test system: Mycobacterium avium 330/88; experiment: Antimycobacterial micromethod in Šula's medium, M. avium; format: cell-based
[7] = test system: Escherichia coli ATCC 25922, CCM 3954; experiment: Antibacterial microdilution broth method, E. coli; format: cell-based; details: Escherichia coli
[8] = test system: Mycobacterium kansasii 235/80; experiment: Antimycobacterial micromethod in Šula's medium, M. kansasii 235/80; format: cell-based
[9] = test system: Candida albicans ATCC 44859; experiment: Antifungal microdilution broth method, C. albicans; format: cell-based
In short: as §1

[10] = test system: HepG2 cells; experiment: Cytotoxicity, CellTiter 96 assay; format: cell-based, human; details: Homo sapiens, HepG2, 24 h, 24 h incubation
Description: HepG2, human hepatocellular carcinoma cells (ATCC HB-8065; passage 5–8) purchased from Health Protection Agency Culture Collections (ECACC, Salisbury, UK) were cultured in Minimum Essentials Eagle Medium supplemented with 10% fetal bovine serum, 1% L-glutamine solution and non-essential amino acid solution (Sigma-Aldrich, St. Louis, MO, USA) in a humidified atmosphere containing 5% CO2 at 37 °C. For subculturing, the cells were harvested after trypsin/EDTA (Sigma-Aldrich, St. Louis, USA) treatment at 37 °C. To evaluate cytotoxicity, the cells treated with the tested substances were used as experimental groups whereas untreated HepG2 cells served as control groups.
The cells were seeded in a density of 10 000 cells per well in a 96-well plate. The following day the cells were treated with each of the tested substances dissolved in DMSO (maximal incubation concentration of DMSO was 1% v/v). The tested substances were prepared at different incubation concentrations in triplicates according to their solubility. Simultaneously, the controls representing 100% cell viability, 0% cell viability (the cells treated with 10% DMSO), no cell control and vehiculum controls were also involved in triplicates. After 24 h incubation in a humidified atmosphere containing 5% CO2 at 37 °C, the reagent from the kit CellTiter 96 AQueous One Solution Cell Proliferation Assay (CellTiter 96; Promega, Fitchburg, WI, USA) was added. After 2 h incubation at 37 °C absorbance of samples was recorded at 490 nm (TECAN, Infinita M200, Grödig, Austria). A standard toxicological parameter IC50 was calculated by nonlinear regression from a semilogarithmic plot of incubation concentration versus percentage of absorbance relative to untreated controls using GraphPad Prism software (version 6; GraphPad Software, Inc., La Jolla, CA, USA).
The CellTiter 96 assay used is based on the reduction of tetrazolium dye in living cells to formazan, which is then determined colorimetrically. This reduction is related to availability of NADH or NADPH. The decline in levels of these metabolically important compounds in the cell causes that the production of formazan is reduced. For quantitative comparison of cytotoxicity, the parameter IC50 was used.

[11] = test system: Trichophyton interdigitale 445; experiment: Antifungal microdilution broth method, T. interdigitale; format: cell-based
In short: as §1

[12] = test system: Staphylococcus epidermidis H 6966/08; experiment: Antibacterial microdilution broth method, S. epidermidis; format: cell-based; details: Staphylococcus epidermidis, H6966/08, S. epidermidis
[13] = test system: Candida glabrata 20/I; experiment: Antifungal microdilution broth method, C. glabrata; format: cell-based; details: Nakaseomyces glabratus
In short: as §1

[14] = test system: Staphylococcus aureus ATCC 29213, CCM 4223; experiment: Antibacterial microdilution broth method, S. aureus; format: cell-based
[15] = test system: Aspergillus fumigatus 231; experiment: Antifungal microdilution broth method, A. fumigatus; format: cell-based
In short: as §1

[16] = test system: Enterococcus faecalis ATCC 29212, CCM 4224; experiment: Antibacterial microdilution broth method, E. faecalis; format: cell-based; details: Enterococcus faecalis
[17] = 24 h incubation, read-out: MIC PA 24 h
[18] = 48 h incubation, read-out: MIC PA 48 h
[19] = 24 h incubation, read-out: MIC MRSA 24 h
[20] = 48 h incubation, read-out: MIC MRSA 48 h
[21] = 168 h, 7 days incubation at 37 °C, read-out: MIC M. kansasii 6509/96 7 d
[22] = 336 h, 14 days incubation at 37 °C, read-out: MIC M. kansasii 6509/96 14 d
[23] = 504 h, 21 days incubation at 37 °C, read-out: MIC M. kansasii 6509/96 21 d
[24] = 330/88, 336 h, 14 days incubation at 37 °C, read-out: MIC M. avium 330/88 14 d
[25] = 330/88, 504 h, 21 days incubation at 37 °C, read-out: MIC M. avium 330/88 21 d
[26] = 24 h incubation, read-out: MIC EC 24 h
[27] = 48 h incubation, read-out: MIC EC 48 h
[28] = 235/80, 168 h, 7 days incubation at 37 °C, read-out: MIC M. kansasii 235/80 7 d
[29] = 235/80, 336 h, 14 days incubation at 37 °C, read-out: MIC M. kansasii 235/80 14 d
[30] = 235/80, 504 h, 21 days incubation at 37 °C, read-out: MIC M. kansasii 235/80 21 d
[31] = ATCC44859, 24 h, read-out: MIC CA 24 h
[32] = ATCC44859, 48 h, read-out: MIC CA 48 h
[33] = 24 h incubation, read-out: MIC SE 24 h
[34] = 48 h incubation, read-out: MIC SE 48 h
[35] = 24 h incubation, read-out: MIC SA 24 h
[36] = 48 h incubation, read-out: MIC SA 48 h
[37] = 24 h incubation, read-out: MIC EF 24 h
[38] = 48 h incubation, read-out: MIC EF 48 h

SMILES	MIC [1, 17]	MIC [1, 18]	MIC [2, 19]	MIC [2, 20]	MIC KP-E 24 h [3]	MIC KP-E 48 h [3]	MIC [4, 21]	MIC [4, 22]	MIC [4, 23]	MIC ([5]; 24 h, read-out: MIC LC 24 h)	MIC ([5]; 48 h, read-out: MIC LC 48 h)	MIC [6, 24]	MIC [6, 25]	MIC [7, 26]	MIC [7, 27]	MIC [8, 28]	MIC [8, 29]	MIC [8, 30]	MIC [9, 31]	MIC [9, 32]	also measured
CC(C)(C)c1ccc(O)c(C=Nc2ccc(C(=O)O)cc2)c1 [1j, 4-{[5-(Tert-butyl)-2-hydroxybenzylidene]amino}benzoic acid]	> 500 µM	> 500 µM	> 500 µM	> 500 µM	>500 µM	>500 µM	250 µM (≈ 74.3 µg/mL)	250 µM (≈ 74.3 µg/mL)	500 µM (≈ 149 µg/mL)	> 500 µM	> 500 µM	1000 µM (≈ 297 µg/mL)	> 1000 µM	> 500 µM	> 500 µM	125 µM (≈ 37.2 µg/mL)	125 µM (≈ 37.2 µg/mL)	250 µM (≈ 74.3 µg/mL)	> 500 µM	> 500 µM	IC50 [10]: 80.8 µM; MIC ([11]; 72 h, read-out: MIC TI 72 h): > 500 µM; MIC ([11]; 120 h, read-out: MIC TI 120 h): > 500 µM; MIC [12, 33]: > 500 µM; MIC [12, 34]: > 500 µM; MIC ([13]; 24 h, read-out: MIC CG 24 h): > 500 µM; MIC ([13]; 48 h, read-out: MIC CG 48 h): > 500 µM; MIC [14, 35]: > 500 µM; MIC [14, 36]: > 500 µM; MIC ([15]; 24 h, read-out: MIC AF 24 h): > 500 µM; MIC ([15]; 48 h, read-out: MIC AF 48 h): > 500 µM; MIC [16, 37]: > 500 µM; MIC [16, 38]: > 500 µM
O=C(O)c1ccc(N=Cc2c(O)cccc2Cl)cc1 [1k, 4-[(2-Chloro-6-hydroxybenzylidene)amino]benzoic acid]	> 500 µM	> 500 µM	> 500 µM	> 500 µM	>500 µM	>500 µM	250 µM (≈ 68.9 µg/mL)	250 µM (≈ 68.9 µg/mL)	500 µM (≈ 138 µg/mL)	> 125 µM	> 125 µM	500 µM (≈ 138 µg/mL)	1000 µM (≈ 276 µg/mL)	> 500 µM	> 500 µM	250 µM (≈ 68.9 µg/mL)	500 µM (≈ 138 µg/mL)	500 µM (≈ 138 µg/mL)	125 µM (≈ 34.5 µg/mL)	125 µM (≈ 34.5 µg/mL)	IC50 [10]: 280 µM; MIC ([11]; 72 h, read-out: MIC TI 72 h): 125 µM (≈ 34.5 µg/mL); MIC ([11]; 120 h, read-out: MIC TI 120 h): 125 µM (≈ 34.5 µg/mL); MIC [12, 33]: > 500 µM; MIC [12, 34]: > 500 µM; MIC ([13]; 24 h, read-out: MIC CG 24 h): 125 µM (≈ 34.5 µg/mL); MIC ([13]; 48 h, read-out: MIC CG 48 h): 125 µM (≈ 34.5 µg/mL); MIC [14, 35]: > 500 µM; MIC [14, 36]: > 500 µM; MIC ([15]; 24 h, read-out: MIC AF 24 h): > 125 µM; MIC ([15]; 48 h, read-out: MIC AF 48 h): > 125 µM; MIC [16, 37]: > 500 µM; MIC [16, 38]: > 500 µM
O=C(O)c1ccc(N=Cc2ccc(Cl)cc2O)cc1 [1l, 4-[(4-Chloro-2-hydroxybenzylidene)amino]benzoic acid]	> 500 µM	> 500 µM	> 500 µM	> 500 µM	>500 µM	>500 µM	250 µM (≈ 68.9 µg/mL)	250 µM (≈ 68.9 µg/mL)	500 µM (≈ 138 µg/mL)	> 500 µM	> 500 µM	1000 µM (≈ 276 µg/mL)	1000 µM (≈ 276 µg/mL)	> 500 µM	> 500 µM	250 µM (≈ 68.9 µg/mL)	500 µM (≈ 138 µg/mL)	500 µM (≈ 138 µg/mL)	250 µM (≈ 68.9 µg/mL)	> 500 µM	IC50 [10]: 264 µM; MIC ([11]; 72 h, read-out: MIC TI 72 h): 500 µM (≈ 138 µg/mL); MIC ([11]; 120 h, read-out: MIC TI 120 h): > 500 µM; MIC [12, 33]: > 500 µM; MIC [12, 34]: > 500 µM; MIC ([13]; 24 h, read-out: MIC CG 24 h): 500 µM (≈ 138 µg/mL); MIC ([13]; 48 h, read-out: MIC CG 48 h): > 500 µM; MIC [14, 35]: > 500 µM; MIC [14, 36]: > 500 µM; MIC ([15]; 24 h, read-out: MIC AF 24 h): 250 µM (≈ 68.9 µg/mL); MIC ([15]; 48 h, read-out: MIC AF 48 h): > 500 µM; MIC [16, 37]: > 500 µM; MIC [16, 38]: > 500 µM
